pIC50: −log10 of the molar value. Structures can show the parent of a compound that is named as a salt. Where two headings read alike, the source gives them in different places.
Experiments:
[1] = tested on: EGFR mutant L858R/T790M Ba/F3 cells; experiment: Ba/F3 cell proliferation model (Cell Titer Glo), EGFR L858R/T790M; type: cell-based, murine; conditions: 72 hours
From the text: Example 26: Ba/F3 Cell Proliferation Models
The EGFR mutant L858R and L858R/T790M Ba/F3 cells have been previously described (Zhou, W., et al. Nature 462, 2009, 1070-1074). All cell lines were maintained in RPM 1640 (Cellgro; Mediatech Inc., Herndon. CA) supplemented with 10% FBS, 100 units/mL penicillin, 100 units/mL streptomycin. The EGFR I941R mutation was introduced via site directed mutagenesis using the Quick Change Site-Directed Mutagenesis kit (Stratagene; La Jolla, CA) according to the manufacturer's instructions. All constructs were confirmed by DNA sequencing. The constructs were shuttled into the retroviral vector JP1540 using the Cre-recombination system (Agilent Technologies, Santa Clara, CA). Ba/F3 cells were then infected with retrovirus per standard protocols, as described previously (Zhou, et al, Nature 2009). Stable clones were obtained by selection in puromycin (2 μg/ml).
Growth and inhibition of growth was assessed by the Cell Titer Glo® assay (Promega, Madison, WI) and was performed according to the manufacturer's instructions. The Cell Titer Glo® assay is a luminescence-based method used to determine the number of viable cells based on quantitation of the ATP present, which is directly proportional to the amount of metabolically active cells present. Ba/F3 cells of different EGFR genotypes were exposed to compounds as a single agent or in combination with 1 μg/mL cetuximab for 72 hours and the number of cells used per experiment was determined empirically as has been previously established (Zhou, et al., Nature 2009). All experimental points were set up in triplicates in 384-well plates and all experiments were repeated at least three times. […] The curves were fitted using a non-linear regression model with a sigmoidal dose response.

EGFR L858R/T790M = EGFR L858R/T790M (Homo sapiens (Human), UniProt P00533, L858R/T790M); experiment: HTRF-based EGFR biochemical assay (L858R/T790M); conditions: 100 μM ATP, enzyme 0.02 nM
EGFR L858R/T790M, sequence (P00533 25-1210 T790M/L858R): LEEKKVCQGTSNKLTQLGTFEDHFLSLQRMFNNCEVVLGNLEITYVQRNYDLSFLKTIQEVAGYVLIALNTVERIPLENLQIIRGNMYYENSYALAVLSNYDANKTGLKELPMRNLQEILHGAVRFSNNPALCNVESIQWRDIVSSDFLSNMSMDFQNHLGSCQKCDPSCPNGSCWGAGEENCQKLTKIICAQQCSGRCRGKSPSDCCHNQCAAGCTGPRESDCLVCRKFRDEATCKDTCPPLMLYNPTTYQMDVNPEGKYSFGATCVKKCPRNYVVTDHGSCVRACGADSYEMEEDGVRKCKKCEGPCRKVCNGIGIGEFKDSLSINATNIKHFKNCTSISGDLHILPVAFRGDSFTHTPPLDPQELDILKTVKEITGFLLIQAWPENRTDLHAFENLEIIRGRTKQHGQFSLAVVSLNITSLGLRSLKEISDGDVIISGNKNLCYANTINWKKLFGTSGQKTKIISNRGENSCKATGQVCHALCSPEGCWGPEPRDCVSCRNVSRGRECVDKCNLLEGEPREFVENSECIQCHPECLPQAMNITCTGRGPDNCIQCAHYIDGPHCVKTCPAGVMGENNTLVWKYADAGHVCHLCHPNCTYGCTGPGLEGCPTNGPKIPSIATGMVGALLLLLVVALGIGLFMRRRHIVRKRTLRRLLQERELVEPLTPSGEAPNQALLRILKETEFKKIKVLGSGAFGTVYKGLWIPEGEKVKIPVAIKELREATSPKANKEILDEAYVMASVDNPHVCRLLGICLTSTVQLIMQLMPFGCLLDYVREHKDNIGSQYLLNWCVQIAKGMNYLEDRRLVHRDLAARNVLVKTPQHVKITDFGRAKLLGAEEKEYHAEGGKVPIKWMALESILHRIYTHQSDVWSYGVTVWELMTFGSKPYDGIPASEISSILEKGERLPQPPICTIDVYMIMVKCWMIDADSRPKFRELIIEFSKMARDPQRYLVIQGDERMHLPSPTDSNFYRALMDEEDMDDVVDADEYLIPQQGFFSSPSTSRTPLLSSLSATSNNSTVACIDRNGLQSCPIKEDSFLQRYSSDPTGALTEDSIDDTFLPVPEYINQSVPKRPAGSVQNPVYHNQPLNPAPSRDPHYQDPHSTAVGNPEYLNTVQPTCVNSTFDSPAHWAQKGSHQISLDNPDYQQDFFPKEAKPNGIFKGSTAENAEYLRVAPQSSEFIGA
Method: (§1) Example 25: HTRF-Based EGFR Biochemical Assays
(§2) EGFR biochemical activity measurements were carried out using the homogeneous time-resolved fluorescence (HTRF) assay (Cisbio), inhibitors and DMSO normalizations were first dispensed to empty black low-volume 384-well plates (Corning) with 0300 digital liquid dispenser (HP). All reactions were carried out at room temperature and solutions were added to plates with a Multidrop Combi Reagent Dispenser (ThermoFisher). The reaction mixture (10 μL final volume) contained 1 μM tyrosine kinase peptide-biotin substrate and mutant EGFR in a reaction buffer (50 mM HEPES pH 7.0, 5 mM MgCl2, 1 mM MnCl2, 0.01% BSA, 2 mM TCEP, 0.1 mM NaVO4). Enzyme concentrations were adjusted to accommodate varying kinase activities (L858R 0.1 nM, L858R/T790M 0.02 nM). Enzyme reaction solution (2× concentrations, 5 μL) was added to 384-well plates containing compounds and incubated for 30 mins. Enzyme reactions were initiated with the addition of 5 μL of ATP to a final concentration of 100 μM and reacted for 20 mins. Reactions were quenched with the addition of 10 μL of phospho-tyrosine antibody-Europium(III) cryptate (1-to-180 volume ratio) and Streptavidin-XL665 (46.7 nM) in EDTA-containing detection buffer, then incubated at room temperature for 1 hour, and read with a PHERAstar plate reader (excitation=337 nm, emission=620 nm and 665 nm).

EGFR L858R = EGFR L858R (Homo sapiens (Human), UniProt P00533, L858R); experiment: HTRF-based EGFR biochemical assay (L858R); conditions: 100 μM ATP, enzyme 0.1 nM
EGFR L858R, sequence (P00533 25-1210 L858R): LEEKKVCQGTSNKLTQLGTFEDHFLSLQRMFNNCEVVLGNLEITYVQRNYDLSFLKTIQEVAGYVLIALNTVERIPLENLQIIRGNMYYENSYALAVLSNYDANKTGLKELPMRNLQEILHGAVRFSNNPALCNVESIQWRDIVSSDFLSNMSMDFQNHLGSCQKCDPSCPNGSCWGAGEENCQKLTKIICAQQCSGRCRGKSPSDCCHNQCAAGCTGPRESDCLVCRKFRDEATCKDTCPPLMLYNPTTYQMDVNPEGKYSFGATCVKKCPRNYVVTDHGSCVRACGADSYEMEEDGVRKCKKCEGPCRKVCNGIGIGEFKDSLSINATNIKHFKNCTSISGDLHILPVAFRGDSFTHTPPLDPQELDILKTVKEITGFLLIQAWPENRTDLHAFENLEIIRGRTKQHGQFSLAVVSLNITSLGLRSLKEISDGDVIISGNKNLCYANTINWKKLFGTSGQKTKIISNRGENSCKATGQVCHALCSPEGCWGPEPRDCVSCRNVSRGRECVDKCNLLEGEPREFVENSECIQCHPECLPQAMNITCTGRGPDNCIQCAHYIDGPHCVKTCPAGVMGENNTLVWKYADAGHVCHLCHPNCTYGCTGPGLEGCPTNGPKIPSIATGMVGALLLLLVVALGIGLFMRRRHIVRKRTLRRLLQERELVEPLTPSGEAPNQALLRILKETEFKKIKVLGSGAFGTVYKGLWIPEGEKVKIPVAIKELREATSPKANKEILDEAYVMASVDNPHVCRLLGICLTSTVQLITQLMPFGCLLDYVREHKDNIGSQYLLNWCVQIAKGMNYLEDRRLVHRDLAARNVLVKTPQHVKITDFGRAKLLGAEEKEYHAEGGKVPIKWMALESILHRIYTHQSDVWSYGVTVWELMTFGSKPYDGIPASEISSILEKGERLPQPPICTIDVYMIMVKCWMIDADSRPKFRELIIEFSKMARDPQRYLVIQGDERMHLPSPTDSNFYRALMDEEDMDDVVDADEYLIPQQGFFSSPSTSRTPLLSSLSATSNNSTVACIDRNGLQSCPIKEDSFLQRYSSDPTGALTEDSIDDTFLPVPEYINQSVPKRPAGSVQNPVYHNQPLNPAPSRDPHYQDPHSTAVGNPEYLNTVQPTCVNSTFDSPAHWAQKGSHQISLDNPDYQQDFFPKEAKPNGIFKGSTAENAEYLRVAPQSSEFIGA
Method: as §1, §2

[2] = Mus musculus, BaF3, single agent, read-out: Cell IC50 BaF3 EGFR L858R/T790M
[3] = in combination with 1 μg/mL cetuximab, read-out: Cell IC50 BaF3 EGFR L858R/T790M (+cetux.)

Compound `[2H][C@@](c1nc2ccccc2[nH]1)(c1cc(F)ccc1O)N1Cc2ccc(-c3ccc(C4CCN(C)CC4)cc3)cc2C1=O` (single isomer, unassigned) [Compound 037] has a pIC50 [1, 2] of 6.80 and a pIC50 [1, 3] of 8.40.

In the case of `CN1CCC(c2ccc(-c3ccc4c(c3)C(=O)N([C@H](c3nc5ccccc5[nH]3)c3cc(F)ccc3O)C4)cc2)CC1` (single isomer, unassigned) [Compound 037], the pIC50 (EGFR L858R/T790M) was 9.30 and the pIC50 (EGFR L858R) was 8.85.

With `[2H][C@](c1nc2ccccc2[nH]1)(c1cc(F)ccc1O)N1Cc2ccc(-c3ccc(C4CCN(C)CC4)cc3)cc2C1=O` (single isomer, unassigned) [Compound 038] the pIC50 [1, 2] was 6.03 and the pIC50 [1, 3] was 7.39.

Work on `CN1CCC(c2ccc(-c3ccc4c(c3)C(=O)N([C@@H](c3nc5ccccc5[nH]3)c3cc(F)ccc3O)C4)cc2)CC1` (single isomer, unassigned) [Compound 038] yielded a pIC50 (EGFR L858R/T790M) of 8.22 and a pIC50 (EGFR L858R) of 7.74.

For `CN1CCC(c2ccc(-c3cc(F)c4c(=O)n([C@H](c5nc6ccccc6[nH]5)c5cc(F)ccc5O)ccc4c3)cc2)CC1` (single isomer, unassigned) [Compound 066], the pIC50 (EGFR L858R/T790M) was 8.52 and the pIC50 (EGFR L858R) was 7.85.

Work on `CN1CCC(c2ccc(-c3ccc4c(=O)n([C@@H](c5nc6ccccc6[nH]5)c5cc(F)ccc5O)ccc4c3)cc2)CC1` (single isomer, unassigned) [Compound 067] yielded a pIC50 (EGFR L858R/T790M) of 8.40 and a pIC50 (EGFR L858R) of 7.96.

With `CN1CCC(c2ccc(-c3ccc4c(=O)n([C@H](c5nc6ccccc6[nH]5)c5cc(F)ccc5O)ccc4c3)cc2)CC1` (single isomer, unassigned) [Compound 068] the pIC50 (EGFR L858R/T790M) was 6.78 and the pIC50 (EGFR L858R) was 6.12.

`CN1CCC(c2ccc(-c3ccc4c(c3)C(=S)N([C@H](c3nc5ccccc5[nH]3)c3cc(F)ccc3O)C4)cc2)CC1` (single isomer, unassigned) [Compound 084] showed a pIC50 (EGFR L858R/T790M) of 6.63 and a pIC50 (EGFR L858R) of 6.66.

`Cc1c[nH]c([C@@H](c2cc(F)ccc2O)N2Cc3ccc(-c4ccc(C5CCN(C)CC5)cc4)c(F)c3C2=O)n1` (single isomer, unassigned) [Compound 94] was tested, and the pIC50 (EGFR L858R/T790M) was 8.70 and the pIC50 (EGFR L858R) was 9.00.

With `Cc1c[nH]c([C@H](c2cc(F)ccc2O)N2Cc3ccc(-c4ccc(C5CCN(C)CC5)cc4)c(F)c3C2=O)n1` (single isomer, unassigned) [Compound 095] the pIC50 (EGFR L858R/T790M) was 7.23 and the pIC50 (EGFR L858R) was 7.04.

Compound `Cc1c[nH]c([C@@H](c2cc(F)ccc2O)N2Cc3ccc(-c4ccc(C5CCN(C)CC5)cc4)cc3C2=O)n1` (single isomer, unassigned) [Compound 104] has a pIC50 (EGFR L858R/T790M) of 8.70 and a pIC50 (EGFR L858R) of 9.00.

Compound `Cc1c[nH]c([C@H](c2cc(F)ccc2O)N2Cc3ccc(-c4ccc(C5CCN(C)CC5)cc4)cc3C2=O)n1` (single isomer, unassigned) [Compound 105] has a pIC50 (EGFR L858R/T790M) of 7.31 and a pIC50 (EGFR L858R) of 7.19.

For `CN1CCC(c2ccc(-c3ccc4c(n3)C(=O)N([C@@H](c3nc5ccccc5[nH]3)c3cc(F)ccc3O)C4)cc2)CC1` (single isomer, unassigned) [Compound 106], the pIC50 (EGFR L858R/T790M) was 9.10 and the pIC50 (EGFR L858R) was 8.52.

`CN1CCC(c2ccc(-c3ccc4c(n3)C(=O)N([C@H](c3nc5ccccc5[nH]3)c3cc(F)ccc3O)C4)cc2)CC1` (single isomer, unassigned) [Compound 107] showed a pIC50 (EGFR L858R/T790M) of 7.77 and a pIC50 (EGFR L858R) of 7.15.

`CN1CCC(c2ccc(-c3ccc4c(=O)n([C@@H](c5nc6ccccc6[nH]5)c5cc(F)ccc5O)ccc4c3)cc2)CC1` (single isomer, unassigned) [Compound 114] showed a pIC50 (EGFR L858R/T790M) of 9.05 and a pIC50 (EGFR L858R) of 8.70.

`CN1CCC(c2ccc(-c3ccc4c(=O)n([C@H](c5nc6ccccc6[nH]5)c5cc(F)ccc5O)ccc4c3)cc2)CC1` (single isomer, unassigned) [Compound 115] gave a pIC50 (EGFR L858R/T790M) of 6.80 and a pIC50 (EGFR L858R) of 6.88.

Work on `CN1CCC(c2ccc(-c3cc(F)c4c(=O)n([C@@H](c5nc6ccccc6[nH]5)c5cc(F)ccc5O)ccc4c3)cc2)CC1` (single isomer, unassigned) [Compound 116, dihydrochloride] yielded a pIC50 (EGFR L858R/T790M; dihydrochloride) of 9.70 and a pIC50 (EGFR L858R; dihydrochloride) of 9.10.

Work on `CN1CCC(c2ccc(-c3cc(F)c4c(=O)n([C@H](c5nc6ccccc6[nH]5)c5cc(F)ccc5O)ccc4c3)cc2)CC1` (single isomer, unassigned) [Compound 117, 2-[1H-Benzimidazol-2-yl-(5-fluoro-2-hydroxy-phenyl)methyl-8-fluoro-6-[3-fluoro-4-(1-methyl-4-piperidyl)phenyl]isoquinolin-1-one; dihydrochloride] yielded a pIC50 (EGFR L858R/T790M; dihydrochloride) of 7.09 and a pIC50 (EGFR L858R; dihydrochloride) of less than 7.00.

`O=C1c2cc(-c3ccc(N4CCNCC4)cc3)ccc2CN1C(c1nc2ccccc2[nH]1)c1cc(F)ccc1O` (stereo not shown) [Compound 021, 2-[1H-Benzimidazol-2-yl-(5-fluoro-2-hydroxy-phenyl)methyl]-6-(4-piperazin-1-yiphenyl)isoindolin-1-one;hydrochioride] gave a pIC50 [1, 2] of 5.78 and a pIC50 [1, 3] of 7.70.

`CN1CCC(c2ccc(-c3ccc4c(c3)C(=O)N(C(c3nc5ccccc5[nH]3)c3cccc(Cl)c3O)C4)cc2)CC1` (stereo not shown) [Compound 043, 2-[1H-benzimidazol-2-yl-(3-chloro-2-hydroxy-phenyl)-methyl]-6-[4-(1-methyl-4-piperidyl)phenyl]isoindolin-1-one; dihydrochloride] was tested, and the pIC50 [1, 2] was 5.31 and the pIC50 [1, 3] was 6.24.

With `Cc1cnc(C(c2cc(F)ccc2O)N2Cc3ccc(-c4ccc(C5CCN(C)CC5)cc4)c(F)c3C2=O)[nH]1` (stereo not shown) [Compound 093, 7-Fluoro-2-[(5-fluoro-2-hydroxy-phenyl)-(5-methyl-1H-imidazol-2-yl)methyl]-6-[4-(1-methyl-4-piperidyl)phenyl]isoindolin-1-one] the pIC50 (EGFR L858R/T790M) was 8.40 and the pIC50 (EGFR L858R) was 8.52.

With `Cc1c(-c2ccc(C3CCN(C)CC3)cc2)ccc2cn(C(c3nc4ccccc4[nH]3)c3cc(F)ccc3O)nc12` (stereo not shown) [Compound 096, 2-[1H-Benzimidazol-2-yl-[7-methyl-6-[4-(1-methyl-4-piperidyl)phenyl]indazol-2-yl]methyl]-4-fluoro-phenol; dihydrochloride] the pIC50 (EGFR L858R/T790M) was 9.10 and the pIC50 (EGFR L858R) was 8.52.

`CN1CCC(c2ccc(-c3cc4nn(C(c5nc6ccccc6[nH]5)c5cc(F)ccc5O)cc4cc3O)cc2)CC1` (stereo not shown) [Compound 097, 2-[1H-Benzimidazol-2-yl-(5-fluoro-2-hydroxy-phenyl)methyl]-6-[4-(1-methyl-4-piperidyl)phenyl]indazol-5-ol] was tested, and the pIC50 (EGFR L858R/T790M) was 7.44 and the pIC50 (EGFR L858R) was 7.80.

With `Cc1cc2cn(C(c3nc4ccccc4[nH]3)c3cc(F)ccc3O)nc2cc1-c1ccc(C2CCN(C)CC2)cc1` (stereo not shown) [Compound 098, 2-[1H-Benzimidazol-2-yl-[5-methyl-6-[4-(1-methyl-4-piperidyl)phenyl]-indazol-2-yl]methyl]-4-fluoro-phenol; dihydrochloride] the pIC50 (EGFR L858R/T790M) was 8.40 and the pIC50 (EGFR L858R) was 8.22.

In the case of `COc1cc2cn(C(c3nc4ccccc4[nH]3)c3cc(F)ccc3O)nc2cc1-c1ccc(C2CCN(C)CC2)cc1` (stereo not shown) [Compound 099, 2-[1H-Benzimidazol-2-yl-[5-methoxy-6-[4-(1-methyl-4-piperidyl)phenyl]indazol-2-yl]methyl]-4-fluoro-phenol], the pIC50 (EGFR L858R/T790M) was 8.10 and the pIC50 (EGFR L858R) was 8.00.

For `CN1CCC(c2ccc(-c3ccc4cn(C(c5nc6c(F)cccc6[nH]5)c5cc(F)ccc5O)nc4c3F)cc2)CC1` (stereo not shown) [Compound 101, 4-Fluoro-2-((4-fluoro-1H-benzo[d]-imidazol-2-yl)(7-fluoro-6-(4-(1-methylpiperidin-4-yl)phenyl)-2H-indazol-2-yl)methyl)phenol; trifluoroacetate], the pIC50 (EGFR L858R/T790M) was 9.10 and the pIC50 (EGFR L858R) was 8.40.
